Columns and labels:
Miro1-AcK105 = Miro1-AcK105 levels in DRG cultures by immunoblotting and immunofluorescence; format: cell-based, rat
Source text: The three reported acetylation sites for Miro1 in human cell lines K92, K512, and K618 (Choudhary et al., 2009; Lundby et al., 2012) correspond to K105, K525, and K629 in rat Miro1 (FIG. 6 at D). We generated Lys-to-Ala mutants for K105, K525, and K629 to determine if these Miro1 residues are acetylated in neurons (Myc-Miro1K105A , Myc-Miro1K525A , and […]; FIG. 6 at D). […] To more definitively assess acetylation of K105, we used acetylated Miro1 peptides to generate an anti-Miro1-AcK105 antibody.
For immunoblotting, protein lysates or immunoprecipitates were denatured by boiling in Laemmli sample buffer, fractionated by SDS-PAGE, and transferred to nitrocellulose membranes. Blots were blocked for 1 h at room temperature with 5% nonfat dry milk in TBS with 0.1% Tween 20 (TBST). Primary antibodies diluted in 5% BSA in TBST were added to the membranes and incubated overnight at 4° C. with rocking. Primary antibodies consisted of rabbit anti-Myc (1:2,000; Cell Signaling; 71D10), rabbit anti-RHOT1 antibody (1:1,000; Aviva Systems Biology; ARP44817 P050), rabbit anti-HDAC6 antibody (1:2,000; Cell Signaling; 7558), rabbit anti-ERK1 (1:5,000; Abcam; ab32537), and affinity-purified custom rabbit anti-Miro1-AcK105 (1:2,500; Twiss laboratory, see above) antibodies. For the anti-Miro1-AcK105 antibody, preimmune and test-bleed sera were used at 1:1,000 dilutions to initially evaluate for specificity. After washing in TBST, blots were incubated with HRP-conjugated anti-rabbit IgG antibodies (1:5,000; Jackson Immunoresearch) diluted in blocking buffer for 1 h at room temperature. Signals were detected using ECL Prime (GE Healthcare) after extensive washing.
Standard immunofluorescence methods were used as previously described (Merianda et al., 2009) at room temperature unless specified otherwise. Briefly, coverslips were rinsed in PBS, fixed in buffered 3.7% PFA for 15-20 min, and washed twice in PBS. Cultures were permeabilized with PBS plus 0.3% Triton X-100 (PBST; Sigma-Aldrich) for 5 min. Coverslips were blocked in 2% BSA and 2% FBS (Gemini) for 1 h. […]

[1] = test system: axonal mitochondrial membrane potential (ΨM); assay: Mitochondrial membrane potential (JC-1 red/green ratio) in axon shafts of DRG neurons; format: cell-based, rat
Source text: Considering the above changes in mitochondrial transport, we asked if MAG and CSPG might affect mitochondrial function in axons. Functional mitochondria are needed to generate ATP, and the mitochondrion's membrane potential (ΨM) is thought to reflect its capacity for generating ATP. Increased anterograde transport of mitochondria in axons correlated with higher ΨM, as measured by the ratiometric 5,5′,6,6′-tetrachloro-1,1′,3,3′-tetraethylbenzimidazolcarbocyanine iodide (JC-1) dye (Miller and Sheetz, 2004), and reduced axonal ΨM in Drosophila melanogaster larvae was recently correlated with overall decrease in mitochondrial transport (Liao et al., 2017).
JC-1 (Life Technologies) was used for wm measurements. For this, DRG cultures were equilibrated in culture medium with […] JC-1 for 20 min at 37° C. Medium was replaced, and the cells were maintained at 37° C. in the high-content imaging system on which JC-1 fluorescent signals in green and red wavelengths were acquired. […]
Vesicle trafficking was quantified using differential ImageJ Difference Tracker Plug-in (Andrews et al., 2010). 50-80-μm long unbranched axon segments at approximately the mid-region between growth cone and cell body were analyzed. […] The distance between the growth tip at end of the post-CALI sequence and the pre-CALI baseline was measured using LAS-X software. Movement of ≥0.5 μm toward the axon shaft was counted as retracted. Fluorescence emission of the Mito-KR post-CALI was analyzed using ImageJ. For normalizing intensities across FRAP image sets, fluorescence intensity at each time point was scaled using the LAS-X FRAP module so that the residual fluorescence signal at t=0 min (post-bleach) was set at 0 and the prebleach intensity was set at 100% for each bleached ROI. For axon shaft FRAP analyses, each 50-μm bleached ROI was divided into […], and the fluorescence intensity recovery was measured as described above. […] A minimum of 75 unmyelinated axons was analyzed for each nerve. All unmyelinated axons from each analyzed image were included for quantitative studies. […]

SMILES	anti-Miro1-AcK105 immunoblot signal (Miro1-AcK105; DRG lysates ± 10 μM TubA)	effect on MAG-Fc- or CSPG-dependent declines in ΨM ([1]; 10 μM TubA)	effect on Rho activator- and thapsigargin-dependent decrease in ΨM ([1]; +10 μM TubA)	Miro1-AcK105 overall by immunoblotting (Miro1-AcK105; 10 μg/ml aggrecan or 1 μM thapsigargin, 4 h)	Miro1-AcK105 in axons by immunofluorescence (Miro1-AcK105; aggrecan- or thapsigargin-treated cultures)	ΨM in the axons ([1]; 1 μg/ml Rho activator or 1 μM thapsigargin)
CN1CCc2c(c3ccccc3n2Cc2ccc(C(=O)NO)cc2)C1 [TubA, tubastatin]	clear increase in signal	prevented by inhibition of HDAC6 with TubA	also prevented by HDAC6 inhibition			
C/C=C(/C)C(=O)O[C@H]1C(C)=C2[C@H]([C@@H]1OC(=O)CCCCCCC)[C@@](C)(OC(C)=O)C[C@H](OC(=O)CCC)[C@@]1(O)[C@H]2OC(=O)[C@@]1(C)O [thapsigargin]				decreased Miro1-AcK105	decreased Miro1-AcK105	decreased ΨM

From patent publication US20210330756A1, “Acetylation of Miro1” (University of South Carolina, priority 2020, published 2021)
